# Measured values published in paper PMC6151961 (Journal of Enzyme Inhibition and Medicinal Chemistry, 2018).
# Target: T1, CA IX (Homo sapiens, UniProt Q16790)
# Experiment: biochemical
# Details: not given
row,Structure (SMILES),log10 of Ki in nM
1,NS(=O)(=O)c1ccc(-c2cccc(C=O)c2)cc1 [A1584],1.993
2,CC(=O)OC[C@H]1O[C@@H](n2cc(-c3ccc(S(N)(=O)=O)cc3)nn2)[C@H](OC(C)=O)[C@@H](OC(C)=O)[C@@H]1OC(C)=O [A1660],2.079
3,COC(=O)[C@H]1O[C@@H](n2cc(COC(=O)c3ccc(S(N)(=O)=O)cc3)nn2)[C@H](OC(C)=O)[C@@H](OC(C)=O)[C@@H]1OC(C)=O [A1674],2.097
4,CCCCCOS(N)(=O)=O [A1675],2.100
5,CC(=O)NNc1ccccc1S(N)(=O)=O [A1755],2.243
6,NS(=O)(=O)c1ccc(C(=O)NCc2cn([C@@H]3O[C@H](CO)[C@H](O)[C@H](O)[C@H]3O)nn2)cc1 [A1960],2.556
7,CCOC(=O)c1cc(O)ccc1O [A2120],2.934
8,NS(=O)(=O)OCCCCOS(N)(=O)=O [A2532],4.732
9,CC(=O)OC[C@H]1O[C@@H]([S+]([O-])Cc2cn(-c3ccc(S(N)(=O)=O)cc3)nn2)[C@H](OC(C)=O)[C@@H](OC(C)=O)[C@H]1OC(C)=O (some centres unmarked) [B0152],0.886
10,CC(=O)OC[C@H]1O[C@@H]([S+]([O-])Cc2cn(-c3ccc(S(N)(=O)=O)cc3)nn2)[C@H](OC(C)=O)[C@@H](OC(C)=O)[C@@H]1OC(C)=O (some centres unmarked) [B0212],0.996
11,NS(=O)(=O)c1ccc(NC(=O)Cn2ccc(=O)c(S(N)(=O)=O)c2)cc1 [B0371],1.491
12,COc1ccc2c(=O)n(-c3ccc(S(N)(=O)=O)cc3)c(S)nc2c1 [B0440],1.653
13,NOC(=O)c1cc(Cl)c(Cl)c(C(=O)ON)c1 [B0452],1.699

# Same assay, conditions: experimental value from the library Ki (IDs A…, B…); values equal log10 of Ki in nM
row,Structure (SMILES),log10 of Ki in nM
1,COc1cccc(C(=O)CN2C(=O)C=C(C)OS2(=O)=O)c1 [A1737],2.207
2,"COc1ccc2c(c1)/C(=N/c1ccc(C(=O)Nc3ccc(S(N)(=O)=O)cc3)cc1)C(=O)N2 [A1756, reference compound]",2.243
3,CCCN(CCC)S(=O)(=O)c1ccc(C(=O)Nc2ccccc2[N+](=O)[O-])cc1 [A1771],2.283
4,CCCN(CCC)S(=O)(=O)c1ccc(C(=O)N[C@@H](CS)C(=O)O)cc1 [A1793],2.305
5,NS(=O)(=O)c1ccc(NC(=O)c2ccc(/N=C3\C(=O)Nc4ccc([N+](=O)[O-])cc43)cc2)cc1 [A1847],2.375
6,CCCCC(=O)OC[C@H]1O[C@@H](n2cc(-c3ccc(S(N)(=O)=O)cc3)nn2)[C@H](OC(=O)CCCC)[C@@H](OC(=O)CCCC)[C@H]1OC(=O)CCCC [A1944],2.525
7,NS(=O)(=O)c1ccc(NC(=O)N2CCN(CCO)CC2)cc1 [A1995],2.639
8,NS(=O)(=O)c1ccc(CNC(=O)CCCNC(=O)NCc2ccccc2)cc1 [A2003],2.660
9,COc1ccc(-c2cnc(C3CCC3)o2)cc1S(N)(=O)=O [B0034],0.491
10,NS(=O)(=O)c1ccc(-c2cnc(C3CCC3)o2)cc1 [B0121],0.813
11,NS(=O)(=O)c1ccc(-c2cnc(C3CCC3)o2)s1 [B0649],2.193

# Same assay, conditions: experimental value from the library Ki (IDs A…, B…); values equal log10 of Ki in nM; read-out: pKi (exp.) (converted)
row,Ki,Structure (SMILES)
1,0.33 nM,CC(=O)[C@H]1NN(c2ccccc2)[C@H]([C@H](C#N)C(=O)Nc2ccc(S(N)(=O)=O)cc2)S1 [A0013]
2,9.29 nM,CN1N[C@@H](S(N)(=O)=O)S[C@H]1NC(=O)CCSSCCC(=O)/N=c1\sc(S(N)(=O)=O)nn1C [A0620]
3,37 nM,C[C@@H](Sc1nc(-c2ccc(Cl)c(F)c2)c(C#N)c(=O)[nH]1)C(=O)Nc1ccc(S(N)(=O)=O)cc1 [A1157]
4,1000 nM,Nc1nc(N)c2nc(CNCCc3ccc(S(=O)(=O)O)cc3)cnc2n1 [A2175]

# Same assay, conditions: experimental value used for the QSPR model, library compounds (IDs A…, B…); equals log10 of Ki in nM
row,Structure (SMILES),log10 of Ki in nM
1,Nc1c(Br)cc(S(N)(=O)=O)cc1I [A1512],1.934
2,Cc1cc(C)c(S(=O)(=O)Nc2ccc(C3C4=C(CC(C)(C)CC4=O)N(c4ccc(S(N)(=O)=O)cc4)C4=C3C(=O)CC(C)(C)C4)cc2)c(C)c1 [A1534],1.954
3,N#Cc1c(-c2ccc(Br)cc2)cn(-c2ccc(S(N)(=O)=O)cc2)c1NC(=S)Nc1ccc(Br)cc1 [A1551],1.960
4,Cc1ccc(-n2c(=S)[nH]c3c(c(-c4ccc(Br)cc4)cn3-c3ccc(S(N)(=O)=O)cc3)c2=N)cc1 [A1740],2.210
5,CCCCC(=O)OC[C@H]1O[C@@H](n2cc(-c3ccc(S(N)(=O)=O)cc3)nn2)[C@H](OC(=O)CCCC)[C@@H](OC(=O)CCCC)[C@@H]1OC(=O)CCCC [A2148],2.978
6,NS(=O)(=O)c1ccc2nc(-n3cc(C=O)c(-c4ccc(F)cc4)n3)sc2c1 [A2181],3.009
7,Cc1ccc(NC(=S)NNC(=O)c2ccccc2O)cc1 [A2191],3.095
8,Oc1ccccc1/C=N/CCCC/N=C/c1ccccc1O [A2462],4.021
9,NS(=O)(=O)c1ccc(-n2cc(-c3ccc(Br)cc3)c3c2ncn2nc4c5ccccc5nc-4nc32)cc1 [B0025],0.431
10,CC(=O)N1C(=O)/C(=N\n2cnc3c(c(-c4ccc(Br)cc4)cn3-c3ccc(S(N)(=O)=O)cc3)c2=N)c2ccccc21 [B0037],0.491
11,NS(=O)(=O)c1ccc(NC2=NC(=O)/C(=N/Nc3ccc(Cl)cc3)S2)cc1 [B0138],0.863
12,NS(=O)(=O)c1cc(-c2cnc(C3CC3)o2)cs1 [B0238],1.114
13,NS(=O)(=O)c1cc(-c2cnc(C(=O)N3CCOCC3)o2)cs1 [B0343],1.447
14,Cc1ccc2c(c1)/C(=N\c1ccc(C(=O)Nc3ccc(S(N)(=O)=O)cc3)cc1)C(=O)N2 [B0670],2.303
15,CC1(C)CC(=O)C2=C(C1)N(c1ccc(S(N)(=O)=O)cc1)C1=C(C(=O)CC(C)(C)C1)C2c1ccc([N+](=O)[O-])cc1 [B0775],3.009
16,Cc1cc(C)oc(=O)c1 [B0786],3.393
17,O=NCc1c(O)ccc(-c2ccc(O)cc2)c1Cl [B0828],3.780

# Same assay, conditions: experimental value used for the QSPR model, library compounds (IDs A…, B…); equals log10 of Ki in nM; read-out: pKi (exp.) (converted)
row,Ki,Structure (SMILES)
1,3 nM,NS(=O)(=O)Nc1ccc(NC(=O)Nc2ccc(Cl)cc2)cc1 [A0149]
2,10000 nM,O=C(Cc1ccccc1Br)Oc1ccc2c(c1)OS(=O)(=O)C=C2 [A2451]

# Same assay, conditions: library compounds with IDs A… and B…; from observed Ki (nM)
row,Structure (SMILES),log10 of Ki in nM
1,Cc1cc(C)c(S(=O)(=O)Nc2cccc(C3C4=C(CC(C)(C)CC4=O)N(c4ccc(S(N)(=O)=O)cc4)C4=C3C(=O)CC(C)(C)C4)c2)c(C)c1 [A1535],1.954
2,O=C1NS(=O)(=O)c2cc([N+](=O)[O-])ccc21 [A1570],1.981
3,NS(=O)(=O)c1ccc2nc(-n3cc(/C=N/O)c(-c4ccc([N+](=O)[O-])cc4)n3)sc2c1 [A1655],2.076
4,Cc1c(C(=O)N2CCN(C)CC2)cc(-c2ccc3ccccc3c2)n1-c1ccc(S(N)(=O)=O)cc1 [A1687],2.124
5,NS(=O)(=O)c1ccc(CNC(=O)Cc2ccccc2)cc1 [A1701],2.134
6,COc1ccc(NC(=S)Nc2c(C#N)c(-c3ccc(Br)cc3)cn2-c2ccc(S(N)(=O)=O)cc2)cc1 [A1714],2.149
7,CCCN(CCC)S(=O)(=O)c1ccc(C(=O)NCC)cc1 [A1724],2.179
8,NS(=O)(=O)c1ccc(/N=c2\scc(-c3ccc(Br)cc3)n2C2CCCCC2)cc1 [A1905],2.442
9,Cc1ccc(-c2cnc(C3CC3)o2)cc1S(N)(=O)=O [A1938],2.502
10,CC1(C)CC(=O)C2=C(C1)N(c1ccc(S(N)(=O)=O)cc1)C1=C(C(=O)CC(C)(C)C1)C2c1cccc([N+](=O)[O-])c1 [A1986],2.623
11,Cc1cc(C)cc(NC(=O)Nc2ccc3c(C)cc(=O)oc3c2)c1 [A2046],2.785
12,NC(=S)NNC(=O)c1ccncc1 [A2157],2.988
13,C=CCOc1cc(=S)oc2ccccc12 [A2239],3.483
14,CC(C)(C)OC(=O)N(CCCCN(CCCNC(=O)C(F)(F)F)C(=O)OC(C)(C)C)CCCNC(=O)C(F)(F)F [A2554],5.093
15,NS(=O)(=O)c1ccc(-n2cc(-c3ccc(Br)cc3)c3c2ncn2nnnc32)cc1 [B0028],0.447
16,COc1ccc2c(c1)/C(=N\NC(=O)c1cnn(-c3ccc(S(N)(=O)=O)cc3)c1-c1ccccc1)C(=O)N2 [B0041],0.519
17,N#Cc1c(-c2ccc(Br)cc2)cn(-c2ccc(S(N)(=O)=O)cc2)c1NC(=O)c1ccc(Br)cc1 [B0101],0.724
18,COc1ccc2c(c1)/C(=N\c1ccc(NC(=O)Nc3ccc(S(N)(=O)=O)cc3)cc1)C(=O)N2 [B0174],0.929
19,Cc1ccc(-c2cnc(C3CC3)o2)cc1S(N)(=O)=O [B0710],2.502

# Same assay, conditions: library compounds with IDs A… and B…; from observed Ki (nM); read-out: pKi (exp.) (converted)
row,Structure (SMILES),Ki
1,N#C[C@H]1C(COc2ccc(S(N)(=O)=O)cc2)=NON1O [A0707],11.3 nM
2,CC(C)CCC[C@@H](C)[C@H]1CC[C@@H]2[C@@H]1CC[C@H]1[C@H]2CC=C2C[C@@H](OS(N)(=O)=O)CC[C@@]21C [A2177],1000 nM

# Same assay, conditions: read-out: pKi (exp.) (converted)
row,Ki,Structure (SMILES)
1,8.49 nM,C[C@H](Nc1nc(NCc2ccc(S(N)(=O)=O)cc2)nc(N[C@H](C)C(=O)O)n1)C(=O)O [A0552]
2,24 nM,NS(=O)(=O)c1ccc(C(=O)NNC(=O)Nc2ccc([C@]34C[C@H]5C[C@H](C[C@H](C5)C3)C4)cc2)cc1 [A0952]
3,10000 nM,CCOC(=O)c1cc(S(N)(=O)=O)c(SSc2cc(Cl)c(C(=O)OCC)cc2S(N)(=O)=O)cc1Cl [A2456]

row,Structure (SMILES),Ki
1,NS(=O)(=O)c1nnc(NC(=O)[C@]23C[C@H]4C[C@H](C[C@H](C4)C2)C3)s1 [A0389],6.4 nM

# Target: T1, CA IX
# Experiment: not given
# Details: library compounds with IDs A… and B…; observed Ki; ref ChEMBL, BindingDB; read-out: Ki; cited from earlier work
row,Structure (SMILES),Ki
1,N#C[C@H]1C(COc2ccc(S(N)(=O)=O)cc2)=NON1O [A0707],11.3 nM

# Same assay, conditions: observed Ki of library compounds (IDs A…, B…); ref ChEMBL and BindingDB; read-out: Ki; cited from earlier work
row,Structure (SMILES),Ki
1,CC(=O)[C@H]1NN(c2ccccc2)[C@H]([C@H](C#N)C(=O)Nc2ccc(S(N)(=O)=O)cc2)S1 [A0013],0.33 nM
2,NS(=O)(=O)Nc1ccc(NC(=O)Nc2ccc(Cl)cc2)cc1 [A0149],3 nM
3,CN1N[C@@H](S(N)(=O)=O)S[C@H]1NC(=O)CCSSCCC(=O)/N=c1\sc(S(N)(=O)=O)nn1C [A0620],9.3 nM
4,C[C@@H](Sc1nc(-c2ccc(Cl)c(F)c2)c(C#N)c(=O)[nH]1)C(=O)Nc1ccc(S(N)(=O)=O)cc1 [A1157],37 nM

# Same assay, conditions: read-out: Ki; cited from earlier work
row,Structure (SMILES),Ki
1,NS(=O)(=O)c1nnc(NC(=O)[C@]23C[C@H]4C[C@H](C[C@H](C4)C2)C3)s1 [A0389],6.4 nM
2,C[C@H](Nc1nc(NCc2ccc(S(N)(=O)=O)cc2)nc(N[C@H](C)C(=O)O)n1)C(=O)O [A0552],8.5 nM
3,NS(=O)(=O)c1ccc(C(=O)NNC(=O)Nc2ccc([C@]34C[C@H]5C[C@H](C[C@H](C5)C3)C4)cc2)cc1 [A0952],24 nM
